Each block holds one molecule with its values, some of them ahead of it.
Assays:
[1] = target: T1, citrate synthase (TpCSH6) (Thermoplasma acidophilum, UniProt P21553); assay: fluorescence titration of the TpCSH6–OAA complex (CitMX formation); also competitive inhibition versus AcCoA, Ki =[…]; format: binding
T1 construct: gene gltA; full-length TpCS (lacking N-terminal Met) with C-terminal His6 tag (TpCSH6)
T1 sequence (P21553 2-385): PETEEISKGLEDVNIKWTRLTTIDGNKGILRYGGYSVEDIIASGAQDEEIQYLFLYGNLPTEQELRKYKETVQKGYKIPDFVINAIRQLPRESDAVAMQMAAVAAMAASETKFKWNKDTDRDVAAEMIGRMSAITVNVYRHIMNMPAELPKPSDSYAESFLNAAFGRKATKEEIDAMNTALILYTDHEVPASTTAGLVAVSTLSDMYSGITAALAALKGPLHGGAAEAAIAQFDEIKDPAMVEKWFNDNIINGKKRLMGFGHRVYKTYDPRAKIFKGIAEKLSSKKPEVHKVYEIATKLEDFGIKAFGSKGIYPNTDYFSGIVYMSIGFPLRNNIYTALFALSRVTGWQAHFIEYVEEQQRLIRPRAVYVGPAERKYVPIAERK

[2] = target: T2, citrate synthase (TpCSH6-H222Q) (Thermoplasma acidophilum, UniProt P21553, H223Q); assay: fluorescence titration (Trp348 quenching); format: binding
T2 construct: gene gltA; full-length TpCS with C-terminal His6 tag, H222Q mutant

[3] = target: T1, citrate synthase (TpCSH6); assay: fluorescence titration (Trp348 quenching); format: binding
purified protein = substrate: CC(=O)SCCNC(=O)CCNC(=O)[C@H](O)C(C)(C)COP(=O)(O)OP(=O)(O)OC[C@H]1O[C@@H](n2cnc3c(N)ncnc32)[C@H](O)[C@@H]1OP(=O)(O)O; assay: purified protein; details: oxaloacetate (co-substrate) AcCoA binding site (His222, Asp317)

T2 sequence (P21553 2-385 H223Q): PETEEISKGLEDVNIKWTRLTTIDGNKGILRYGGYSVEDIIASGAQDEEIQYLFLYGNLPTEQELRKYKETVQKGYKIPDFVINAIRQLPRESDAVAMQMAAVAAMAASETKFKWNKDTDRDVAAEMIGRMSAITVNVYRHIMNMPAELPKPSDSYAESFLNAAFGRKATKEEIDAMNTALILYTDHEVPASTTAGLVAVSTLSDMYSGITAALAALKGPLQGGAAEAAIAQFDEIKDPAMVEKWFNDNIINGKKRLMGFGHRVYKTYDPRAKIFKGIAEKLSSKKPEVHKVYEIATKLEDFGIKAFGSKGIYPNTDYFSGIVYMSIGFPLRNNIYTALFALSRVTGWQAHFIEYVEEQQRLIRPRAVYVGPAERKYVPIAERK

Kd [1]: 1500 nM
Molecule: CC(=O)CCCNC(=O)CCNC(=O)[C@H](O)C(C)(C)COP(=O)(O)OP(=O)(O)OC[C@H]1O[C@@H](n2cnc3c(N)ncnc32)[C@H](O)[C@@H]1OP(=O)(O)O [AcMX, dethiaacetyl-CoA]

Molecule: O=C(O)CC(=O)C(=O)O [OAA, oxaloacetate]
Kd [2]: 19000 nM | Kd [3]: 760 nM

B1: citrate synthase (TpCSH6) (Thermoplasma acidophilum DSM 1728) (protein)
chain: PETEEISKGLEDVNIKWTRLTTIDGNKGILRYGGYSVEDIIASGAQDEEIQYLFLYGNLPTEQELRKYKETVQKGYKIPDFVINAIRQLPRESDAVAMQMAAVAAMAASETKFKWNKDTDRDVAAEMIGRMSAITVNVYRHIMNMPAELPKPSDSYAESFLNAAFGRKATKEEIDAMNTALILYTDHEVPASTTAGLVAVSTLSDMYSGITAALAALKGPLHGGAAEAAIAQFDEIKDPAMVEKWFNDNIINGKKRLMGFGHRVYKTYDPRAKIFKGIAEKLSSKKPEVHKVYEIATKLEDFGIKAFGSKGIYPNTDYFSGIVYMSIGFPLRNNIYTALFALSRVTGWQAHFIEYVEEQQRLIRPRAVYVGPAERKYVPIAERK
Km (purified protein): 3.0 µM

From paper PMC4601594, “An active site–tail interaction in the structure of hexahistidine-tagged Thermoplasma acidophilum citrate synthase” (Acta Crystallographica. Section F, Structural Biology …, 2015)
